# Laboratory results published in patent US20240327430A1 (Breakpoint Therapeutics GmbH, priority 2023, published 2024).
# Target: truncated Polθ protein (Polθ-Hel containing the helicase domain (67-894)) (Homo sapiens (Human), UniProt O75417)
# Test: Polθ ATPase assay (Biological Assay 1, ADP-Glo luminescence)
# Format: biochemical
# Conditions: Polθ-Hel 0.5 nM, DNA substrate 500 nM, ATP 60 μM, 23° C.; read-out: Pole ATPase assay IC50
# Protocol: The Polθ ATPase assay was used to evaluate inhibitors of Polθ ATPase activity, in vitro. Experiments were performed using a truncated Polθ protein (Polθ-Hel containing the helicase domain (67-894), ATP and a DNA single strand Oligo (5′-CTGTCCTGCATGATG-3′) in the Polθ assay buffer (20 mM Tis-HCl (pH 8.8), MgCl2 5 mM, tween20 0.01%, NP40 0.01%, BSA 0.01%, DTT 1 mM). 2 μL of assay buffer containing Pole-Hel protein (0.5 nM) and DNA substrate (500 nM) was transferred into assay ready plates, containing 0.04 μL of compounds diluted in DMSO. After a 30 minutes incubation at 23° C. in the dark, the reaction was triggered by adding 2 μL of ATP (60 μM), in assay buffer. After 60 minutes at 23° C., 4 μl of ADP-Glo™ Reagent (Glo 1) was added followed by 40 minutes of incubation, then 8 μl of ADP-Glom kinase Detection Reagent (Glo 2) followed by 60 minutes of incubation at 23° C. Luminescence was then measured using Tecan F200 infinite plate reader. Raw data were analysed using GeneData to generate IC50 values.
# The Polθ ATPase assay described in Biological Assay 1 above was used to evaluate inhibitors of Polθ ATPase activity for the compounds described in the Experimental Part B above, in vitro.
# Sequence of truncated Polθ protein (Polθ-Hel containing the helicase domain (67-894)) (O75417 67-894): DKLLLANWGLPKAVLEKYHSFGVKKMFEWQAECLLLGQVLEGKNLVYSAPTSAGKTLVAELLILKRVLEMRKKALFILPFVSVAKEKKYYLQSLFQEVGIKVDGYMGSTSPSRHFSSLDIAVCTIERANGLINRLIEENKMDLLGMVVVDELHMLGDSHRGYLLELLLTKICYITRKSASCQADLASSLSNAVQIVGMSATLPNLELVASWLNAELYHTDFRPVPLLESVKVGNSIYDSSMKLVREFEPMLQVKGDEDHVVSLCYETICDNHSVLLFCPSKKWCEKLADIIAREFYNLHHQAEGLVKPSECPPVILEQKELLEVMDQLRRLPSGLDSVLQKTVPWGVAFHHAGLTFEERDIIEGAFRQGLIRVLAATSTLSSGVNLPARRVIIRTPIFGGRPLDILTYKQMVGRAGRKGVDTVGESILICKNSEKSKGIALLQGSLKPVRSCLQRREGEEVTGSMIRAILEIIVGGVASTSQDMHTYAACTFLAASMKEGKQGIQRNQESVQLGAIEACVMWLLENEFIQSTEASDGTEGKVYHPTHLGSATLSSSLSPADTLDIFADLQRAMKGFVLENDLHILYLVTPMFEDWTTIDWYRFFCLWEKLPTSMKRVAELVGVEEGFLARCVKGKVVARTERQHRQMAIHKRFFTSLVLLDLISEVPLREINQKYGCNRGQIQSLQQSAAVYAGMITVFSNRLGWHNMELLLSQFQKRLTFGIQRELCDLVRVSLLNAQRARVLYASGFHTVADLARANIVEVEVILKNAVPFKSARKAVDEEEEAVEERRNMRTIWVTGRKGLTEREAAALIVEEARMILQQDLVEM
row,IC50,SMILES
1,100 to 1000 nM,"COc1cnc(Cl)cc1-c1cc(C)ncc1C(=O)Nc1nc2ccc(N)cc2s1 [Example 36A, N-(6-amino-1,3-benzothiazol-2-yl)-4-(2-chloro-5-methoxy-4-pyridyl)-6-methyl-pyridine-3-carboxamide]"
2,< 100 nM,"COc1cnc(Cl)cc1-c1cc(C)ncc1C(=O)Nc1nc2ccc(N3CCCCC3=O)cc2s1 [Example 36B, 2′-chloro-5′-methoxy-6-methyl-N-[6-(2-oxopiperidin-1-yl)-1,3-benzothiazol-2-yl]-[4,4′-bipyridine]-3-carboxamide]"
3,< 100 nM,"COc1cnc(Cl)cc1-c1cc(C)ncc1C(=O)Nc1nc2ccc(-c3ccc(Cl)cn3)cc2s1 [Example 38, 2′-chloro-N-[6-(5-chloropyridin-2-yl)-1,3-benzothiazol-2-yl]-5′-methoxy-6-methyl-[4,4′-bipyridine]-3-carboxamide]"
4,100 to 1000 nM,"COc1cnc(Cl)cc1-c1cc(C)ncc1C(=O)Nc1nc2ccc(C3(O)CCOC3)cc2s1 (stereo not drawn) [Example 40, 2′-chloro-N-[6-(3-hydroxyoxolan-3-yl)-1,3-benzothiazol-2-yl]-5′-methoxy-6-methyl-[4,4′-bipyridine]-3-carboxamide]"
5,< 100 nM,"COc1cnc(Cl)cc1-c1cc(C)ncc1C(=O)Nc1nc2ccc(NS(C)(=O)=O)cc2s1 [Example 41, 2′-chloro-N-(6-methanesulfonamido-1,3-benzothiazol-2-yl)-5′-methoxy-6-methyl-[4,4′-bipyridine]-3-carboxamide]"
6,< 100 nM,"COc1cnc(Cl)cc1-c1cc(C)ncc1C(=O)Nc1nc2cncnc2s1 [Example 42, 2′-chloro-5′-methoxy-6-methyl-N-{[1,3]thiazolo[5,4-d]pyrimidin-2-yl}-[4,4′-bipyridine]-3-carboxamide]"
7,< 100 nM,"COc1cnc(Cl)cc1-c1cc(C)ncc1C(=O)Nc1nc2ccc(SC)cc2s1 [Example 43, 2′-chloro-5′-methoxy-6-methyl-N-[6-(methylsulfanyl)-1,3-benzothiazol-2-yl]-[4,4′-bipyridine]-3-carboxamide]"
8,< 100 nM,"COc1cnc(Cl)cc1-c1cc(C)ncc1C(=O)Nc1nc2ccncc2s1 [Example 44, 2′-chloro-5′-methoxy-6-methyl-N-{[1,3]thiazolo[5,4-c]pyridin-2-yl}-[4,4′-bipyridine]-3-carboxamide]"
9,< 100 nM,"COc1cnc(Cl)cc1-c1cc(C)ncc1C(=O)Nc1nc2ccc(N3CCOCC3=O)cc2s1 [Example 57, 2′-chloro-5′-methoxy-6-methyl-N-[6-(3-oxomorpholin-4-yl)-1,3-benzothiazol-2-yl]-[4,4′-bipyridine]-3-carboxamide]"
10,< 100 nM,"COc1cnc(Cl)cc1-c1cc(C)ncc1C(=O)Nc1nc2ccc(N3CCN(C)C3=O)cc2s1 [Example 58, 2′-chloro-5′-methoxy-6-methyl-N-[6-(3-methyl-2-oxoimidazolidin-1-yl)-1,3-benzothiazol-2-yl]-[4,4′-bipyridine]-3-carboxamide]"
11,< 100 nM,"COc1cnc(Cl)cc1-c1cc(C)ncc1C(=O)Nc1nc2ccc(N3CCOC3=O)cc2s1 [Example 59, 2′-chloro-5′-methoxy-6-methyl-N-[6-(2-oxo-1,3-oxazolidin-3-yl)-1,3-benzothiazol-2-yl]-[4,4′-bipyridine]-3-carboxamide]"

# The next lines start with the molecule.
row,SMILES,IC50
1,"COc1cnc(Cl)cc1-c1cc(C)ncc1C(=O)Nc1nc2ccc(C3=CCCOC3)nc2s1 [Example 37, 2′-chloro-N-[5-(5,6-dihydro-2H-pyran-3-yl)-[1,3]thiazolo[5,4-b]pyridin-2-yl]-5′-methoxy-6-methyl-[4,4′-bipyridine]-3-carboxamide]",< 100 nM
2,"COc1ccccc1-c1cnccc1C(=O)Nc1nc2ccc(-c3ccc(Cl)cn3)cc2s1 [Example 39, N-[6-(5-chloropyridin-2-yl)-1,3-benzothiazol-2-yl]-3-(2-methoxyphenyl)pyridine-4-carboxamide]",100 to 1000 nM
3,"COc1cnc(Cl)cc1-c1cc(C)ncc1C(=O)Nc1nc2cnc(N3CCN(C(C)=O)CC3)nc2s1 [Example 45, N-[5-(4-acetylpiperazin-1-yl)-[1,3]thiazolo[5,4-d]pyrimidin-2-yl]-2′-chloro-5′-methoxy-6-methyl-[4,4′-bipyridine]-3-carboxamide]",< 100 nM
4,"COc1cnc(Cl)cc1-c1cc(C)ncc1C(=O)Nc1nc2cnc(NCCO)nc2s1 [Example 46, 2′-chloro-N-{5-[(2-hydroxyethyl)amino]-[1,3]thiazolo[5,4-d]pyrimidin-2-yl}-5′-methoxy-6-methyl-[4,4′-bipyridine]-3-carboxamide]",< 100 nM
5,"COc1cnc(Cl)cc1-c1cc(C)ncc1C(=O)Nc1nc2cnc(N3CC(OC)C3)nc2s1 [Example 47, 2′-chloro-5′-methoxy-N-[5-(3-methoxyazetidin-1-yl)-[1,3]thiazolo[5,4-d]pyrimidin-2-yl]-6-methyl-[4,4′-bipyridine]-3-carboxamide]",< 100 nM
6,"COc1cnc(Cl)cc1-c1cc(C)ncc1C(=O)Nc1nc2cnc(NC3CCC(O)CC3)nc2s1 (stereo not drawn) [Example 48, 2′-chloro-N-{5-[(4-hydroxycyclohexyl)amino]-[1,3]thiazolo[5,4-d]pyrimidin-2-yl}-5′-methoxy-6-methyl-[4,4′-bipyridine]-3-carboxamide]",< 100 nM
7,"COc1cnc(Cl)cc1-c1cc(C)ncc1C(=O)Nc1nc2cnc(N3CCOC[C@H]3C)nc2s1 [Example 50, 2′-chloro-5′-methoxy-6-methyl-N-{5-[(3R)-3-methylmorpholin-4-yl]-[1,3]thiazolo[5,4-d]pyrimidin-2-yl}-[4,4′-bipyridine]-3-carboxamide]",< 100 nM
8,"COc1cnc(Cl)cc1-c1cc(C)ncc1C(=O)Nc1nc2cnc(N3CCOC[C@@H]3C)nc2s1 [Example 51, 2′-chloro-5′-methoxy-6-methyl-N-{5-[(3S)-3-methylmorpholin-4-yl]-[1,3]thiazolo[5,4-d]pyrimidin-2-yl}-[4,4′-bipyridine]-3-carboxamide]",< 100 nM
9,"COc1cnc(Cl)cc1-c1cc(C)ncc1C(=O)Nc1nc2cnc(NC(C)C)nc2s1 [Example 52, 2′-chloro-5′-methoxy-6-methyl-N-{5-[(propan-2-yl)amino]-[1,3]thiazolo[5,4-d]pyrimidin-2-yl}-[4,4′-bipyridine]-3-carboxamide]",< 100 nM
10,"COc1cnc(Cl)cc1-c1cc(C)ncc1C(=O)Nc1nc2cnc(N3CCC4(CC3)COC4)nc2s1 [Example 53, 2′-chloro-5′-methoxy-6-methyl-N-(5-{2-oxa-7-azaspiro[3.5]nonan-7-yl}-[1,3]thiazolo[5,4-d]pyrimidin-2-yl)-[4,4′-bipyridine]-3-carboxamide]",< 100 nM
11,"COc1cnc(Cl)cc1-c1cc(C)ncc1C(=O)Nc1nc2cnc(N3CC4CCC(C3)N4)nc2s1 [Example 54, 2′-chloro-N-(5-{3,8-diazabicyclo[3.2.1]octan-3-yl}-[1,3]thiazolo[5,4-d]pyrimidin-2-yl)-5′-methoxy-6-methyl-[4,4′-bipyridine]-3-carboxamide]",< 100 nM
12,"COc1cnc(Cl)cc1-c1cc(C)ncc1C(=O)Nc1nc2cnc(N3CCNCC3)nc2s1 [Example 55, 2′-chloro-5′-methoxy-6-methyl-N-[5-(piperazin-1-yl)-[1,3]thiazolo[5,4-d]pyrimidin-2-yl]-[4,4′-bipyridine]-3-carboxamide]",< 100 nM
13,"COc1cnc(Cl)cc1-c1cc(C)ncc1C(=O)Nc1nc2ccc(N3CCCC3=O)cc2s1 [Example 56, 2′-chloro-5′-methoxy-6-methyl-N-[6-(2-oxopyrrolidin-1-yl)-1,3-benzothiazol-2-yl]-[4,4′-bipyridine]-3-carboxamide]",< 100 nM
